Measurements taken from patent US9393225B2, “Melanoma chemoprevention” (University of Pittsburgh—Of the Commonwealth System of …, priority 2012, dated 2016).
Like-named read-outs stand apart in the source and are kept apart here.

What was measured:
SK-MEL37 = details: different concentrations of SFN for 24, 48, or 72 h, FIG. 1
SK-MEL 31 cells [1] = details: 24 hours
Experimental: (§1) Apoptosis induction in SFN-treated SK-MEL 31 cells was assessed by (i) quantification of cytoplasmic histone associated DNA fragments, (ii) Western blot analysis for PARP cleavage and (iii) DAPI dye for nuclear morphology assay. For quantification of cytoplasmic histone-associated DNA fraction, SK-MEL 31 cells were seeded at 4×10^3 cells/well in 96-well plate and allowed to attach overnight. […] After 24 hours, the floating and attached cells were pelleted and lysed with lysis buffer supplied with the cell death detection ELISA kit, lysates were assayed for apoptosis according to the manual. SK-MEL 31 cells were seeded at 1×10^4 cells/well on a round glass coverslip in 12 well plates. Cells were then incubated for 24 hours with 0, 10, or 20 μM SFN, attached cells were fixed with 3% paraformaldehyde in PBS, permeabilized with 1% TRITON® X-100, stained with DAPI dye and inspected under a fluorescent microscope after stained with DAPI.

PARP = details: 20 μM SFN, from 16 to 24 hour after treatment
Experimental: as §1
Cell lysate was cleared by centrifugation at 16000 rpm for 15 min. Lysate proteins were resolved by SDS-PAGE gel electrophoresis and transferred onto nitrocellulose membrane. The membrane was immersed into a phosphate buffered saline (PBS) solution containing 0.2% TWEEN® 20 and 5% (w/v) non-fat dry milk, and then incubated with desired primary antibody for 1 hour at room temperature. […]

Bax and Bak = details: 20 μM SFN
Experimental: (§2) Cell lysate was cleared by centrifugation at 16000 rpm for 15 min. Lysate proteins were resolved by SDS-PAGE gel electrophoresis and transferred onto nitrocellulose membrane. The membrane was immersed into a phosphate buffered saline (PBS) solution containing 0.2% TWEEN® 20 and 5% (w/v) non-fat dry milk, and then incubated with desired primary antibody for 1 hour at room temperature. After incubation with appropriate secondary antibody, the immunoreactive bands were visualized using enhanced chemiluminescence method. The conjugated horseradish peroxidase (HRP) secondary antibody was deactivated with sodium azide, then membranes were re-probed with anti-actin antibody to standardize protein loading. For cytochrome c and Smac/DIABLO, the cytosolic fractions were prepared with the PROTEOEXTRACT™ Subcellular Proteome Extraction kit according to the manufacturer's instructions and Western blot analysis were performed as described above.

Bcl-2 = details: 20 μM SFN, all time points
Experimental: as §2

Bcl-XL = details: 20 μM SFN, evident from the 2 hour time point
Experimental: as §2

Smac and cytochrome c = details: SFN incubation; significant increases after 8 hours
Experimental: as §2

cIAP1 and XIAP = details: SFN treatment, with time increasing
Experimental: as §2

[2] = system: procaspase-9, procaspase-8 and procaspase-3; details: 20 μM SFN, 24 hour time point
Experimental: as §2

caspase-8 = details: 20 μM SFN
Description: (§3) RPMI 1640, penicillin/streptomycin antibiotic mixture, and fetal bovine serum were from Gibco (Grand Island, N.Y.), propidium iodide and 4′,6′-diamidino-2-phenylindole-dihydrochloride (DAPI) were from Sigma (St Louis, Mo.). LIPOFECTAMINE 2000™ and G418 were purchased from Invitrogen (Carlsbad, Calif.). RNaseA was purchased from Promega (Madison, Wis.), and the reagents for electrophoresis were from Bio-Rad (Hercules, Calif.). Antibodies for Bcl-XL, Bak and cytochrome c were purchased from Santa Cruz Biotechnology (Santa Cruz, Calif.), antibodies specific for Bax, Smac/DIABLO, cleaved caspase-3 and cleaved caspase-8, cleaved caspase-9, cIAP1 and poly (ADP-ribose) polymerase (PARP) were purchased from Cell Signaling Technology (Beverly, Mass.), anti Bcl-2 antibody was purchased from Dakocytomation (Denmark), anti XIAP (X-linked inhibitor of apoptosis) antibody was purchased from BD PharMingen (San Diego, Calif.). Anti actin antibody was purchased from Oncogene Research Products (Boston, Mass.). The caspase inhibitors z-VAD fmk (general caspase inhibitor), z-IETD fmk (caspase-8 specific inhibitor) and z-LEHD fmk (caspase-9 specific inhibitor) were purchased from MP Biochemicals (Aurora, Ohio). The caspase-8 and caspase-9 colorimetric assay kits were purchased from R&D systems (Minneapolis, Minn.). Cytoplasmic histone associated DNA fragments detection ELISA kit was purchased from Roche Diagnostics GmbH (Mannheim, Germany). ProteoExtract™ Subcellular Proteome Extraction kit was purchased from Calbiochem (San Diego, Calif.).
(§4) Caspases are aspartate-specific cysteine proteases that play critical roles in apoptosis. Activation of caspases results in cleavage and inactivation of key cellular proteins, including the DNA repair enzyme PARP.

caspase-9 = details: 20 μM SFN, 24 hours
Description: as §3, §4

[3] = system: Cyclin B1, Cdk1, and Cdc25; details: SK-MEL31 cells, 20 μM SFN; FIG. 2
Description: The blots were stripped and re-probed with anti-actin antibody to normalize for differences in protein loading.

[4] = mice, at the doses used
Experimental: (§5) Female athymic mice (6-week-old) were purchased from Taconic (Germantown, N.Y.). SK-MEL 31 cells were suspended in pharmacological grade normal saline, and 0.1 ml suspension containing 5×10^6 cells was injected subcutaneously on right flank of each mouse. Mice were randomized into two groups of 10 mice per group. Experimental animals were gavaged with SFN (5.6 μmol SFN in 0.1 ml normal saline) three times per week (Monday, Wednesday and Friday) beginning two weeks before tumor implantation. Control mice received an equal volume of the vehicle. Tumor volume was determined based on measurement of the length and width of the tumor, […]. Statistical significance of difference in tumor volume was assessed by Student's t-test. Upon the termination of the experiment, the tumor tissues were harvested and processed for analysis of apoptotic bodies by immunohistochemistry method. Tumor tissues were embedded in paraffin, sectioned (6 μm), de-paraffinized and processed for determination of apoptotic bodies using APOTAG® Plus Peroxidase In Situ Apoptosis detection kit (Intergen, NY) according to the manufacturer's instructions. Brown color apoptotic bodies in tumor sections of control and SFN-treated group were counted by two pathologists independently and blindly under a microscope at 400× magnification. Four randomly selected fields on each tumor section were counted for apoptotic bodies.

SK-MEL 31 xenografts = system: SK-MEL 31 xenografts
Experimental: as §5

SK-MEL 31 cells [5] = details: 20 μM SFN, 24 hours, p<0.05
STAT3 = details: administered orally to SCID mice; FIG. 3
SK-MEL 31 cells [6] = experiment: Trypan blue dye exclusion assay (cell proliferation / viability); details: for number of viable cells compared with control: 24 hour

cleavage of procaspase-9, procaspase-8 and procaspase-3 [2]: resulted in cleavage
SMILES: C[S+]([O-])CCCCN=C=S (centres unmarked) [SFN, 1-isothiocyanato-4-(methylsulfinyl)-butane]
melanoma cell growth in vitro (cell viability) (SK-MEL37): inhibits melanoma cell growth in vitro
increase in cytoplasmic histone associated DNA fragments compared with DMSO treated control (SK-MEL 31 cells [1]; 5 μM SFN): ~4.7 fold
increase in cytoplasmic histone associated DNA fragments compared with DMSO treated control (SK-MEL 31 cells [1]; 10 μM SFN): ~11.4 fold
condensed nucleus ratio (SK-MEL 31 cells [1]; SFN 10 or 20 μM, FIG. 5C): increased significantly
PARP cleavage (PARP): obvious increase of PARP cleavage
Bax and Bak protein level (Bax and Bak): no significant level changes
Bcl-2 protein level (Bcl-2): No marked change
Bcl-XL protein level (Bcl-XL): down-regulation
cytosolic levels of Smac and cytochrome c (Smac and cytochrome c): time-dependent increases
cIAP1 and XIAP level (cIAP1 and XIAP): consecutive cIAP1 and XIAP level decreases
caspase-8 activity increase compared with the control group (caspase-8; 16 hour): 45%
caspase-8 activity increase compared with the control group (caspase-8; 24 hour): 73%
increase in caspase-9 activity (caspase-9): 148%
melanoma cell Cyclin B1, Cdk1, and Cdc25 [3]: inhibits
side effect (weight loss, organ weight difference) [4]: No side effect was observed
reduction in tumor volume (SK-MEL 31 xenografts; 16 days after tumor implantation, versus control, p<0.01): 50%
average tumor volume (SK-MEL 31 xenografts; 16 days after tumor implantation, gavage 5.6 μmol SFN three times per week): 154.4±95.4 mm^3
tumor wet weight (SK-MEL 31 xenografts; oral SFN versus control, p<0.01): significant decrease
count of apoptotic bodies in tumor sections versus controls (TUNEL assay) (SK-MEL 31 xenografts; oral SFN, p<0.05): ~4.4 fold
cell cycle distribution (SK-MEL 31 cells [5]): significantly increase of Sub-G0/G1 and G2M phase and decreased G0/G1 phase cell number
STAT3 expression in human melanoma cells transplanted into mice (STAT3): lowered STAT3 expression
number of viable cells compared with control (SK-MEL 31 cells [6]; 10 μM SFN): 58%
number of viable cells compared to control (SK-MEL 31 cells [6]; 10 μM SFN, 48 hour): 27%
number of viable cells compared to control (SK-MEL 31 cells [6]; 10 μM SFN, 72 hour): 19%
number of viable cells compared with control (SK-MEL 31 cells [6]; 20 μM SFN): 46%
number of viable cells compared to control (SK-MEL 31 cells [6]; 20 μM SFN, 48 hour): 23%
number of viable cells compared to control (SK-MEL 31 cells [6]; 20 μM SFN, 72 hour): 13%
number of viable cells compared with control (SK-MEL 31 cells [6]; 40 μM SFN): 26%
number of viable cells compared to control (SK-MEL 31 cells [6]; 40 μM SFN, 48 hour): 10%
number of viable cells compared to control (SK-MEL 31 cells [6]; 40 μM SFN, 72 hour): 10%
melanoma cell growth in vitro (cell viability) (SK-MEL 31 cells [6]; SK-MEL31, different concentrations of SFN for 24, 48, or 72 h, FIG. 1): inhibits melanoma cell growth in vitro
